The text below walks through data of ChEMBL document CHEMBL6078625 (J Med Chem, 2024).

Experiment [1] concerns the target Epithelial discoidin domain-containing receptor 1 (Homo sapiens, UniProt Q08345). The experiment can be described thus: Inhibition of human DDR1 by discoverX kinome scan assay.
In experiment [2] the target is T1, Discoidin domain-containing receptor 2 (Homo sapiens, UniProt Q16832).
T1 sequence (Q16832 whole entry): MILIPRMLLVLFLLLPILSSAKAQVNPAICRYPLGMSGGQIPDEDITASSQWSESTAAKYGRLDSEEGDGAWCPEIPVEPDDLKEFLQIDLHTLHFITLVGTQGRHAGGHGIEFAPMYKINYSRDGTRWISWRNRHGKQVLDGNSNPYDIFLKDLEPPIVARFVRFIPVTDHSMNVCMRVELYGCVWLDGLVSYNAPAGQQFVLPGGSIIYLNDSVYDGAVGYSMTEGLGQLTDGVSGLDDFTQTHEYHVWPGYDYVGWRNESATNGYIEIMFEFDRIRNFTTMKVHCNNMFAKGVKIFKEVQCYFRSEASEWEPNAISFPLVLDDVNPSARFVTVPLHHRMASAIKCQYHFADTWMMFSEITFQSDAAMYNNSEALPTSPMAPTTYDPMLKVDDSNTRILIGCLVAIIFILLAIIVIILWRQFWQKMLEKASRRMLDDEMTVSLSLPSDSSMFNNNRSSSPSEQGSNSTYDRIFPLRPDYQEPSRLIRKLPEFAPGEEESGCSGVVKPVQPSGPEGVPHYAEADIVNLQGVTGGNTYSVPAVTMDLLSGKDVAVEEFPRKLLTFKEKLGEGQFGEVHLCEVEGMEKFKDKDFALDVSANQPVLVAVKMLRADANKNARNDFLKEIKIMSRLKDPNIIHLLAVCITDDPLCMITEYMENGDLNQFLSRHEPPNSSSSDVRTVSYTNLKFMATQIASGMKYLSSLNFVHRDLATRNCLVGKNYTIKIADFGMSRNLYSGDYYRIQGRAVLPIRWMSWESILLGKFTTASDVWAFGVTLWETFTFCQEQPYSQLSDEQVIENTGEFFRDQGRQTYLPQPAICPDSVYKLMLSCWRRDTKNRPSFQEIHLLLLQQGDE
Put plainly: Inhibition of human DDR2 by discoverX kinome scan assay.

The target of experiment [3] is T2, Muscle, skeletal receptor tyrosine-protein kinase (Homo sapiens, UniProt O15146).
T2 sequence (O15146 whole entry): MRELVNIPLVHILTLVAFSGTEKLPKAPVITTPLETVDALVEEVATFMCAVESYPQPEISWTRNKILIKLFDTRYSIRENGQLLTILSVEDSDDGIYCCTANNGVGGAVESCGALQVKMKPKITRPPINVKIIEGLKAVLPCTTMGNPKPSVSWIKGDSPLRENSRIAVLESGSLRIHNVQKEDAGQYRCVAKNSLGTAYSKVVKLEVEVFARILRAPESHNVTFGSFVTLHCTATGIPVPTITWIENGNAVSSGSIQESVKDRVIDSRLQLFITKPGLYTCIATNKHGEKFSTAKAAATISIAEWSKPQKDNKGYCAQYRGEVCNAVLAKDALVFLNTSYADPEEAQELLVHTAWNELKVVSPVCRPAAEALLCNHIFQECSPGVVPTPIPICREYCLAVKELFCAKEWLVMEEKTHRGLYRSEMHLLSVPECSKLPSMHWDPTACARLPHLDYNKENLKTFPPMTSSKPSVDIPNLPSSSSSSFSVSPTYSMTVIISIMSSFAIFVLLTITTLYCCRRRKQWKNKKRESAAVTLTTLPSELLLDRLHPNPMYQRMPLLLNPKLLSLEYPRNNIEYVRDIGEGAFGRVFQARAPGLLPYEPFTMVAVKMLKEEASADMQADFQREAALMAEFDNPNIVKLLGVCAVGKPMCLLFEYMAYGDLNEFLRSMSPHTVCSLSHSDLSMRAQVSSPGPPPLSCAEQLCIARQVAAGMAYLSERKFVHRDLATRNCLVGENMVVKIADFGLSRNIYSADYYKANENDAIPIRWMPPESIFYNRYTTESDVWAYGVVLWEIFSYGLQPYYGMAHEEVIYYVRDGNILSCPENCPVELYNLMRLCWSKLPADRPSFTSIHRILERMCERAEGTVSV
Put plainly: Inhibition of human MUSK by discoverX kinome scan assay.

Experiment [4] deals with High affinity nerve growth factor receptor (Homo sapiens, UniProt P04629). The experiment can be described thus: Inhibition of human TRKA by discoverX kinome scan assay.
The target in experiment [5] is T3, Receptor-type tyrosine-protein kinase FLT3 (Homo sapiens, UniProt P36888).
T3 sequence (P36888 whole entry): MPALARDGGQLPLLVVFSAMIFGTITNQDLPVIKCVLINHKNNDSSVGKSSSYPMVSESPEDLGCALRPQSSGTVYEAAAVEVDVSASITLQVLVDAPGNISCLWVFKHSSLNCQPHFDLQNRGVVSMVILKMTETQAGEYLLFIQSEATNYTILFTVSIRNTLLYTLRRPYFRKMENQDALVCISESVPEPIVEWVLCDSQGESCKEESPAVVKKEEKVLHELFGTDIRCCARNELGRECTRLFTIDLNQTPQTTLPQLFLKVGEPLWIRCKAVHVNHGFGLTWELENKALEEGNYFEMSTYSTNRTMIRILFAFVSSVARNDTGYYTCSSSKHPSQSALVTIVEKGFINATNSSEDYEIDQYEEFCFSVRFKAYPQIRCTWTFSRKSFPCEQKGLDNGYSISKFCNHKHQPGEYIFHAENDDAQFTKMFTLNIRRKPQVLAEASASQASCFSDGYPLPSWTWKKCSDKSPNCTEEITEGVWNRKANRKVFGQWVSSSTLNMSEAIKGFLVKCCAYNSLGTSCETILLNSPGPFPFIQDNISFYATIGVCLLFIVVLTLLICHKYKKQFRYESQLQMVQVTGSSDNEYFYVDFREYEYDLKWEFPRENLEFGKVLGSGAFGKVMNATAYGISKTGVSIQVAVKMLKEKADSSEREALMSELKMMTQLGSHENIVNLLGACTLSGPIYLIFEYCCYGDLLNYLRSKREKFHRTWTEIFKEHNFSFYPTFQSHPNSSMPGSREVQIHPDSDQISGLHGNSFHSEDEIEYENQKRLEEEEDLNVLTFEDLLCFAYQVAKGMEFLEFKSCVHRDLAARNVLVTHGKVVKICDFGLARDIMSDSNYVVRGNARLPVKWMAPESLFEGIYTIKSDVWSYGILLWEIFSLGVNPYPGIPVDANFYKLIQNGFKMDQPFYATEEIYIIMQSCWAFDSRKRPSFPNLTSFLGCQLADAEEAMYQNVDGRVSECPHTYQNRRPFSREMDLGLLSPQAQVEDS
Put plainly: Inhibition of wild type FLT3 (unknown origin).

Another experiment concerns MOLM-13. Put plainly: Antiproliferative activity against human MOLM-13 cells. It counts as functional, cell-based.
Experiment [6] relates to BaF3. Put plainly: Antiproliferative activity against mouse BaF3 cells harbouring FLT3-ITD-D835V mutant. The format is functional, cell-based.
Experiment [7] concerns BaF3. Put plainly: Antiproliferative activity against mouse BaF3 cells harbouring FLT3-ITD-N676D mutant. It counts as functional, cell-based.
The test system of a further experiment is MV4-11. Put plainly: Antiproliferative activity against human MV4-11 cells. It counts as functional, cell-based.
The subject of experiment [8] is BaF3. Put plainly: Antiproliferative activity against mouse BaF3 cells harbouring FLT3-ITD-F691L mutant. The format is functional, cell-based.

pIC50: −log10 of the molar value.

High affinity nerve growth factor receptor, sequence (P04629 whole entry): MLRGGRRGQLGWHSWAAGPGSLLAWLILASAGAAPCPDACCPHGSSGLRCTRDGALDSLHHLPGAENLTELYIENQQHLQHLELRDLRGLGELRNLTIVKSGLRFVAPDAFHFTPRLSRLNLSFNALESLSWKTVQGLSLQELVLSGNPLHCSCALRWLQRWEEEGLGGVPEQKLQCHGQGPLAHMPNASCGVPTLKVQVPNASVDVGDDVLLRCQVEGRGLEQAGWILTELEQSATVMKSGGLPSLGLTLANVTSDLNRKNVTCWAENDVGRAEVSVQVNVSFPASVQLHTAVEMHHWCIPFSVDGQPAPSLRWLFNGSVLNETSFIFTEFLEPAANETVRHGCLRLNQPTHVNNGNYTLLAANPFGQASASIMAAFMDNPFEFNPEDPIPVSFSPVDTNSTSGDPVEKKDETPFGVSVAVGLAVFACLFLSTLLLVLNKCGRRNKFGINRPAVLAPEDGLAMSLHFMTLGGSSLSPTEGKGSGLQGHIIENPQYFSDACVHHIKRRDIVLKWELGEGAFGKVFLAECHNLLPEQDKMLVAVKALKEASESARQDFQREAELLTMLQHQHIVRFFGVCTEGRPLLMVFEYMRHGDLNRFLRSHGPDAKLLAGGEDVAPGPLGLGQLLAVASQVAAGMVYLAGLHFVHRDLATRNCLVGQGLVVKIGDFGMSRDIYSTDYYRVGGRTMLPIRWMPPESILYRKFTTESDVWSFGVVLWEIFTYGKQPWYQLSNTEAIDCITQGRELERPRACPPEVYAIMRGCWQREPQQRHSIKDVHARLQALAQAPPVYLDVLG
Epithelial discoidin domain-containing receptor 1, sequence (Q08345 whole entry, the tested form may be a part): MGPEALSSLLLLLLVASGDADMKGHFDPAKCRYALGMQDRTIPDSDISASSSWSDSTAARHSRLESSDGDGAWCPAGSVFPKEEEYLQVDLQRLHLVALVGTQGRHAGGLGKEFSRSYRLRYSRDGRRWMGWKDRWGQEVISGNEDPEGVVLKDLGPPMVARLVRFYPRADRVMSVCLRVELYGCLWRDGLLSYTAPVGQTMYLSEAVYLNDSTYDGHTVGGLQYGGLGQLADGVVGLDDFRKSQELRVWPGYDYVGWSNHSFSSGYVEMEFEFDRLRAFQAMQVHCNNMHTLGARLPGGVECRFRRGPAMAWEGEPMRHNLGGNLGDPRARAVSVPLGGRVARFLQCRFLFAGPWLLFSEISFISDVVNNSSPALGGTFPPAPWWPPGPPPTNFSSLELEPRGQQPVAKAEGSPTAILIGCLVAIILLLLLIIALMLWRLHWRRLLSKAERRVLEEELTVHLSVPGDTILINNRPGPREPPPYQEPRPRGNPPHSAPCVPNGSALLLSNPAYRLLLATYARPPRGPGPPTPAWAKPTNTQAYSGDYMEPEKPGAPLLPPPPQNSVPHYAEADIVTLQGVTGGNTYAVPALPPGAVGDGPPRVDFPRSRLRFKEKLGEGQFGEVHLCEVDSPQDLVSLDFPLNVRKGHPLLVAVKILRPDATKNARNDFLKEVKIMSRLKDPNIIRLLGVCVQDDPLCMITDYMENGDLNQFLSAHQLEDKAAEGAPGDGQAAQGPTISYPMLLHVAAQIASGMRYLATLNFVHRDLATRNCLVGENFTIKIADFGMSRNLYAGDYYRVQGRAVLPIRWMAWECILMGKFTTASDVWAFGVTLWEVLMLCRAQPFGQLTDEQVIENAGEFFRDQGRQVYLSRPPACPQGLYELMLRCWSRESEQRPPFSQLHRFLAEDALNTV

On to `Cc1cc(-c2ccc(NC(=O)Nc3ccc(C(C)(C)C)cc3)cc2)c2c(N)noc2n1`, for which the pIC50 (in general, the negative decadic logarithm of the IC50, by convention in mol/L) was 7.26 in experiment [1], 7.01 in [2], less than 6.00 in [3] and 6.95 in experiment [4].
In the case of `COc1cccc(CC(=O)Nc2ccc(-c3cc(C)nc4nocc34)cc2)c1`, the pIC50 in experiment [5] was 6.99; in the experiment with MOLM-13, 6.85; in the experiment with BaF3 [6] it was 5.07; with BaF3 [7] it was 5.94; in the experiment on MV4-11 it was 7.24; in the experiment on BaF3 [8] it was 5.45.
